Patent publication US12233068B2, “Combination of active agents for the treatment of progressive fibrosing interstitial lung diseases (PF-ILD)” (Boehringer Ingelheim International GmbH, priority 2017, dated 2025)
Like-named read-outs stand apart in the source and are kept apart here.

Columns and labels:
[1] = tested on: rat; details: in vivo; cited from earlier work
[2] = tested on: human COPD-patients; details: 500 μg daily; cited from earlier work
[3] = tested on: TGF-β-stimulated α-SMA protein expression of human lung fibroblasts from patients with IPF; assay: α-SMA (smooth muscle actin) protein assay (Western replacement assay, MSD), Experiment A; format: cell-based; details: for IC50: n=5 donors; for sign of inhibition of TGF-β-stimulated α-SMA protein expression over the concentration/inhibition curve: low PDE4-inhibitor concentrations, alone or in combination with Nintedanib
Experimental: (§1) Lung fibroblasts of IPF-patients (IPF-LF cells) grown in 96-well plates were incubated for min with different concentrations of the PDE4 inhibitors “Compound of formula III”, “Apremilast” or “Roflumilast-N-Oxide” or with a combination of each of the aforementioned PDE4-inhibitors with Nintedanib.
(§2) After compound incubation cells were stimulated with the assay-relevant stimulus and incubated for the assay—relevant time in the presence of the test compounds.
α-SMA protein was determined by a Western-replacement assay (MSD) using monoclonal anti smooth muscle actin antibodies.
IPF-lung fibroblasts (passage 5 to 8) were seeded in 96-well cell culture plates at 4500 cells/well with 100 μL/well FBM+supplements. 24 h after seeding the cells were washed once with FBM medium without supplements and starved for 24 h.
In experiment A1) the PDE4B-inhibitor of formula III was used as a “test compound” • in rising concentrations either alone (see full circles and black solid curve in FIG. 1) or • in rising concentrations together with a fixed concentration of 100 nMol/L of Nintedanib (see empty circles and grey solid line in FIG. 1). Experiment A2)
In experiment A2) Apremilast was used as a “test compound” • in rising concentrations either alone (see full circles and black solid curve in FIG. 2) or • in rising concentrations together with a fixed concentration of 100 nMol/L of Nintedanib (see empty circles and grey solid line in FIG. 2). Experiment A3)
In experiment A3) Roflumilast-N-oxide was used as a “test compound” • in rising concentrations either alone (see full circles and black solid curve in FIG. 3) or • in rising concentrations together with a fixed concentration of 100 nMol/L of Nintedanib (see empty circles and grey solid line in FIG. 3). Test Compound Dilutions
All “test compounds” (the PDE4B-inhibitor of formula III, Apremilast or Roflumilast) were prepared 1000× in 0.1 mmol/L HCl or DMSO and a 1:3.16 dilution series was performed (in 0.1 mmol/L HCl or DMSO). To obtain 2× concentrated compound-medium a 1:500 dilution (2 μl of the 1000× dilution was added to 998 μl FBM plus 2 nmol/L PGE2) was prepared.
48 h after seeding, the medium was aspirated and FBM (100 μl per well) was added. After 1 h incubation at 37° C., 90 μl medium containing 2× concentrated compounds (at different concentrations) plus 2× concentrated PGE2 (2 nmol/L) was added for 30 min Final concentration for PGE2 was 1 nmol/L.
30 min after test compound pre-incubation (190 μL), 10 μl of 20× concentrated TGF-β was added and the cells stimulated for 48 h at a temperature of 37° C.
For this purpose the TGF-β stock solution (20 μg/mL reconstituted in 4 mmol/L sterile HCL) was diluted 1:200 in starvation medium to reach a concentration of 100 ng/mL. 10 μL of this TGF-β medium or starvation medium was added to indicated wells. The test compound concentration was maintained during the stimulation. The final TGF-β concentration was […].
48 h after stimulation supernatants were removed and stored at −80° C. for further experiments. Cells were washed once with ice cold PBS and 50 μl RIPA buffer containing 1× protease inhibitor was added per well. Lysates were incubated for 5 minutes on ice before stored at −80° C.
After thawing, 25 μl of each lysate was transferred to the membrane of the multi-array 96 well plate (MSD) and incubated for 2 h at room temperature with gentle shaking. After the incubation time, plates were washed 3 times with 200 μl 1× Tris-wash buffer (MSD) and 150 μl of 3% blocking buffer was added for 1 h. After blocking, plates were washed 3 times with 200 μl 1× Tris-wash buffer and 25 μl of the antibody solution (per plate 0.75 ml 3% blocking buffer, 2.25 ml 1× Tris-wash buffer, 1.2 μl anti-α-SMA antibody (1:2500), 15 μl goat anti-mouse sulfo-tag antibody (1:200) was added for 1 h. After AB-incubation plates were washed 3 times with 200 μl 1× Tris-wash buffer and 150 μl of 1×MSD read buffer was added per well. Plates were measured with Sector Imager (MSD). […]

[4] = tested on: FGF plus IL-1β-stimulated proliferation of human lung fibroblasts from patients with IPF; assay: Cell proliferation assay (BrdU incorporation), Experiment B; format: cell-based; details: for IC50 of PDE4 inhibitor alone compared to IC50 of its combination with Nintedanib (proliferation): IC50 alone / IC50 with 100 nMol/L Nintedanib; for IC50: n=5 donors; for effect of the combination with Nintedanib on inhibition of fibroblast proliferation versus calculated additive curve: measured curve with 100 nMol/L Nintedanib compared with calculated additive curve (Poch & Holzmann)
Experimental: as §1, §2
BrdU incorporated in the DNA of proliferating cells was determined by ELISA. BrdU is an analog of the DNA precursor thymidine. In proliferating cells, the DNA has to be replicated before the division can take place. If BrdU is added to the cell culture, proliferating cells will incorporate it into their DNA just like they would incorporate thymidine. The amount of BrdU in the DNA of cells can be detected with specific anti-BrdU fluorescent antibodies followed by flow cytometry or by cellular ELISA with monoclonal antibodies against BrdU.
IPF-lung fibroblasts (passage 5 to 8) were seeded in 96-well cell culture plates at 2500 cells/well with 100 μL/well FBM+supplements. 24 h after seeding the cells were washed once with FBM medium without supplements and then kept in this medium for 24 h starvation.
In experiment B1) the PDE4B-inhibitor of formula III was used as a “test compound” • in rising concentrations either alone (see full circles and black solid curve in FIG. 4) or • in rising concentrations together with a fixed concentration of 100 nMol/L of Nintedanib (see empty circles and grey solid line in FIG. 4).
In experiment B2) Apremilast was used as a “test compound” • in rising concentrations either alone (see full circles and black solid curve in FIG. 5) or • in rising concentrations together with a fixed concentration of 100 nMol/L of Nintedanib (see empty circles and grey solid line in FIG. 5).
In experiment B3) Roflumilast-N-oxide was used as a “test compound” • in rising concentrations either alone (see full circles and black solid curve in FIG. 6) or • in rising concentrations together with a fixed concentration of 100 nMol/L of Nintedanib (see empty circles and grey solid line in FIG. 6).
All test compounds were prepared 1000× in 0.1 mmol/L HCl or DMSO and a 1:3.16 dilution series was performed (in 0.1 mmol/L HCl or DMSO). To obtain 1× concentrated compound medium 1 μl of the 1000×DMSO dilution was added to 999 μl FBM.
48 h after seeding, medium was removed by suction and 90 μl compound- or starvation medium was added for 30 min
30 min after test compound pre-incubation (90 μL), 10 μl of 10× concentrated FGF plus IL-1β was added and the cells were stimulated for 92 h at a temperature of 37° C.
For this purpose the FGF and IL-1β stock solutions (250 μg/mL and 10 μg/mL respectively) were diluted in starvation medium to reach a concentration of 200 ng/mL and 300 pg/mL for FGF and IL-1β respectively. 10 μL of this stimulus medium or starvation medium was added to the indicated wells. The test compound concentration was maintained during the stimulation.
The final FGF concentration was 20 ng/mL. The final IL-1β concentration was 30 pg/mL.
Proliferation was determined by a colorimetric immunoassay for the quantification of cell proliferation, based on the measurement of BrdU incorporation during DNA synthesis. The assay was carried out according to the manufacturer's instructions.
72 h after stimulation a 1:100 dilution of BrdU in starvation medium (resulting concentration 100 μmol/L) was performed and 10 μl added per well (end-concentration per well 10 μmol/l). About 18 h later the BrdU medium was removed by suction. Cells were fixed and denatured for 30 min at room temperature with FixDenat reagent. The reagent was removed by tapping and the anti-BrdU-POD working solution was added (incubation time: 90 min). The plate was washed three times with 200 μL washing buffer before incubation with substrate solution for about 10 min. […]

In the case of `O=C(Nc1c(Cl)cncc1Cl)c1ccc(OC(F)F)c(OCC2CC2)c1` [Roflumilast], the “gastrointestinal side effects in similar gastric emptying and intestinal transit experiments” value [1] is given as “clear trend to show gastrointestinal side effects”, the “patients with decreased weight” value [2] is given as 7.5% and the patients with diarrhea [2] is given as 9.5%. For the same molecule, the patients with headache [2] was 4.4% and the patients with nausea [2] was 4.7%.
With `COC(=O)c1ccc2c(c1)NC(=O)/C2=C(\Nc1ccc(N(C)C(=O)CN2CCN(C)CC2)cc1)c1ccccc1` [Nintedanib] the “inhibitory effect on TGF-β-stimulated α-SMA protein expression (in words)” value ([3]; 100 nM Nintedanib alone) was “no inhibitory effect”, the “Inhibition of TGF-β-stimulated α-SMA protein expression” value ([3]; 100 nMol/L Nintedanib alone, FIGS. 1, 2 and 3) was ≤ 0 and the “inhibitory effect on human lung fibroblasts proliferation (in words)” value ([4]; Nintedanib alone, 100 nMol/L) was “clear inhibitory effect”.
With `O=C(Nc1c(Cl)c[n+]([O-])cc1Cl)c1ccc(OC(F)F)c(OCC2CC2)c1` [Roflumilast N-Oxide] the IC50 ([3]; PDE4 inhibitor alone, IPF lung fibroblasts, read-out: IC50, inhibition of TGF-β-stimulated α-SMA protein expression) was 0.014 µM, the IC50 ([3]; PDE4 inhibitor in rising concentrations with fixed 100 nMol/L Nintedanib, read-out: IC50, inhibition of TGF-β-stimulated α-SMA protein expression, combination with Nintedanib) was 0.0085 µM and the “sign of inhibition of TGF-β-stimulated α-SMA protein expression over the concentration/inhibition curve” value [3] was “negative inhibitions”. The “IC50 of PDE4 inhibitor alone compared to IC50 of its combination with Nintedanib (proliferation)” value [4] was 0.82 fold, the IC50 ([4]; PDE4 inhibitor alone, IPF lung fibroblasts, read-out: IC50, inhibition of FGF plus IL-1β-stimulated proliferation) was 0.00044 µM and the IC50 ([4]; PDE4 inhibitor in rising concentrations with fixed 100 nMol/L Nintedanib, read-out: IC50, inhibition of FGF plus IL-1β-stimulated proliferation, combination with Nintedanib) was 0.000534 µM. The “effect of the combination with Nintedanib on inhibition of fibroblast proliferation versus calculated additive curve” value [4] was “additive effect”.
With `CCOc1cc([C@@H](CS(C)(=O)=O)N2C(=O)c3cccc(NC(C)=O)c3C2=O)ccc1OC` [Apremilast] the IC50 ([3]; Homo sapiens, Fibroblast, PDE4 inhibitor alone, IPF lung fibroblasts, read-out: IC50, inhibition of TGF-β-stimulated α-SMA protein expression) was 3 µM, the IC50 ([3]; Homo sapiens, Fibroblast, PDE4 inhibitor in rising concentrations with fixed 100 nMol/L Nintedanib, read-out: IC50, inhibition of TGF-β-stimulated α-SMA protein expression, combination with Nintedanib) was 2 µM and the “sign of inhibition of TGF-β-stimulated α-SMA protein expression over the concentration/inhibition curve” value [3] was “negative inhibitions”. The IC50 ([4]; Homo sapiens, Fibroblast, PDE4 inhibitor alone, IPF lung fibroblasts, read-out: IC50, inhibition of FGF plus IL-1β-stimulated proliferation) was 1.8 µM, the IC50 ([4]; Homo sapiens, Fibroblast, PDE4 inhibitor in rising concentrations with fixed 100 nMol/L Nintedanib, read-out: IC50, inhibition of FGF plus IL-1β-stimulated proliferation, combination with Nintedanib) was 1.6 µM and the “IC50 of PDE4 inhibitor alone compared to IC50 of its combination with Nintedanib (proliferation)” value [4] was 1.13 fold. The “effect of the combination with Nintedanib on inhibition of fibroblast proliferation versus calculated additive curve” value [4] was “additive effect”.
